Results published in paper PMC5840262, “Design, Synthesis and Evaluation of Branched RRWQWR-Based Peptides as Antibacterial Agents Against Clinically Relevant Gram-Positive and Gram-Negative Pathogens” (Frontiers in Microbiology, 2018).
Converted amounts (≈) assume the structure as drawn. Where two headings read alike, the source gives them in different places. Bridge positions count the residues as written; N and C are the ends. Square brackets hold non-standard residues; d marks the D form. Peptide text beside a SMILES is read from it. I, II: the chains in the order shown. Ahx = NCCCCCC(=O)O

Legend:
[1] = system: clinical isolates of Gram-positive bacteria (Enteroccocus faecium, Staphylococcus aureus); assay: Therapeutic index, Gram-positive clinical isolates; conditions: for Fold (GM peptide / GM tetrameric peptide): Gram-positive clinical isolates
Text: (§1) We determined the therapeutic index of each peptide, which we defined as the ratio of Maximum Hemolytic Activity (Hmax) to MIC50 (Hmax/MIC50).
(§2) The results are shown in Table 7 (Gram-positive) and Table 8 (Gram-negative). Regarding the Gram-positive bacteria, the palindromic, dimeric and tetrameric peptides were active chiefly against S. aureus. This trend was consistent with results of the experiments on the ATCC strains, in which these peptides were only active against the sensitive strain of the […] bacteria.

[2] = system: Klebsiella pneumoniae clinical isolate 49,644; format: cell-based
Experimental: (§3) For the clinical isolates, we used 20 different isolates from the Public Health Reference Laboratory collection of the Secretaría de Salud del Distrito (SdSD; Bogotá, Colombia). The samples were collected from June to December 2016. For each isolate, the patient parameters (age, gender and location) and the culture site were recorded for epidemiologic monitoring (Table 1). All isolates had been previously tested for antibiotic sensitivity at the Public Health Microbiology Laboratory using either the Phoenix™ system (Gram-positive) or the VITEK 2 system (Gram-negative).
(§4) We screened all five peptides against the ATCC reference strains and the clinical isolates according to Method M7-A7 of the National Committee for Clinical Laboratory Standards (CLSI, [2007]). The MIC50 and MBC values were determined using a broth microdilution and growth inhibition method previously reported by Leon-Calvijo et al. ([2015]), with some modifications (Wiegand et al., [2008]). Briefly, the MIC50 experiments comprised a liquid-inhibition growth assay in a sterile, untreated, 96-well flat-bottom tissue culture plate. The bacteria were cultured overnight n Mueller Hinton agar; three colonies were transferred to 8 mL of Mueller Hilton broth and incubated at 37°C until the mid-exponential phase of growth. The turbidity of the cultures was measured and adjusted spectrophotometrically to a McFarland standard of 0.5, and then diluted to a final concentration of 5 × 10^7 colony forming units (CFU) per well. Stock solutions (2,000 μM) of each test peptide were serially diluted to final concentrations (per well) of 200, 100, 50, 25, 12.5, and 6.25 μM. Each concentration was evaluated in duplicate and each assay was performed in triplicate.
(§5) Wells containing Mueller Hilton broth with bacterial inoculum only served as bacterial-growth controls. Additional controls included Mueller Hilton broth alone (as blank) and Mueller Hilton broth with ciprofloxacin (2 μg/mL; as positive control). The microplate was incubated for 24 h at 37°C, and growth inhibition was measured by monitoring the optical density at 620 nm (OD620). The MIC50 was defined as the peptide concentration at which bacterial growth was inhibited by 50%.
(§6) To determine the MBC, an aliquot from each well of the MIC50 assay was spread onto Mueller Hilton agar. After 18 h at 37°C, the concentration that inhibited bacterial growth was determined. Each of these tests was performed four times. MBC was defined as the lowest concentration of peptide at which the number of bacteria was reduced by 99.9% in vitro (European Committee for Antimicrobial Susceptibility Testing, [2000]).

[3] = system: Enterococcus faecium clinical isolate 1,462; format: cell-based
Experimental: as §3, §4, §5, §6

[4] = system: Staphylococcus aureus clinical isolate 48,577; format: cell-based
Experimental: as §3, §4, §5, §6

[5] = system: Enterococcus faecium clinical isolate 1,461; format: cell-based
Experimental: as §3, §4, §5, §6

human erythrocytes = assay: Hemolytic activity; format: cell-based
Experimental: Human erythrocytes collected from the blood samples of healthy humans were harvested by centrifugation for 7 min at 162 × g and washed three times in phosphate-buffered saline (PBS). The erythrocytes (2% hematocrit in PBS) were incubated with peptide molecules at several concentrations (6.25, 12.5, 25, 50, and 100 μM) for 2 h at 37°C. PBS was used as negative control for hemolysis, and sterile distilled water was used as positive control (100% hemolysis). The plate was subsequently centrifuged at 1,459 × g for 10 min at 4°C. Aliquots of the supernatant from each well (75 μL) were carefully transferred to a new sterile 96-well plate, and hemolytic activity was evaluated by measuring the OD492 using an Asys Expert Plus Microplate reader. The experiments were performed in duplicate, and hemolytic activity was calculated for each peptide.

[6] = system: clinical isolates of Gram-negative bacteria (Klebsiella pneumoniae, Pseudomonas aeruginosa); assay: Therapeutic index, Gram-negative clinical isolates; conditions: for Fold (GM peptide / GM tetrameric peptide): Gram-negative clinical isolates
Text: as §1, §2

[7] = system: Gram-negative ATCC strains (K. pneumoniae 13883 and 700603, P. aeruginosa 10145 and 27853); conditions: for Fold (GM peptide / GM tetrameric peptide): Gram-negative ATCC strains
Text: as §1
The therapeutic index (TI) is a ratio of the toxic dose of a substance to its therapeutically-active dose and can be calculated different ways (e.g., LD50/ED50). Here, we calculated a TI value for each peptide against all the Gram-positive or the Gram-negative ATCC strains, by dividing its Hmax by its MIC50 for the given group of strains. […] Additionally, to make our quantitative analysis more robust [geometric mean (Khachatryan et al., [2017]) and fold values], we have included MIC50 values for these peptides against S. aureus and K. pneumoniae that we previously obtained using the same assay, the M7-A7 method of the National Committee for Clinical Laboratory Standards (Leon-Calvijo et al., [2015]).

[8] = system: Enterococcus faecalis ATCC 29212 (sensitive); format: cell-based; conditions: for Bacterial viability (lowest value observed): untreated control = 100%, Figure 2A
Experimental: as §4, §5, §6

[9] = system: Pseudomonas aeruginosa ATCC 10145 (sensitive); format: cell-based
Experimental: as §4, §5, §6

[10] = system: Enterococcus faecalis ATCC 51575 (resistant); format: cell-based; conditions: for Bacterial viability (lowest value observed): untreated control = 100%, Figure 2B
Experimental: as §4, §5, §6

[11] = system: Pseudomonas aeruginosa ATCC 27853 (resistant); format: cell-based
Experimental: as §4, §5, §6

In the case of `N=C(N)NCCC[C@H](NC(=O)[C@H](Cc1c[nH]c2ccccc12)NC(=O)[C@H](CCC(N)=O)NC(=O)[C@H](Cc1c[nH]c2ccccc12)NC(=O)[C@H](CCCNC(=N)N)NC(=O)[C@@H](N)CCCNC(=N)N)C(=O)NCCCC[C@H](NC(=O)[C@H](CCCNC(=N)N)NC(=O)[C@H](Cc1c[nH]c2ccccc12)NC(=O)[C@H](CCC(N)=O)NC(=O)[C@H](Cc1c[nH]c2ccccc12)NC(=O)[C@H](CCCNC(=N)N)NC(=O)[C@@H](N)CCCNC(=N)N)C(=O)NCCCCCC(N)=O` [LfcinB (20–25)2] (I: H-RRWQWRK[Ahx]-NH2 / II: H-RRWQWR; amide I:7-II:C; N-terminus assumed), the “Gm, geometric mean of MIC50 values” [1] is reported as 16.4, the “Fold (GM peptide / GM tetrameric peptide)” value [1] is reported as 2.4 and the MBC ([2]; clinical isolate 49,644, 18 h) is reported as 50.0 µM (≈ 110 µg/mL). It also gave an MIC50 ([2]; clinical isolate 49,644, 24 h) of 12.3 µM (≈ 27 µg/mL), an MBC ([3]; clinical isolate 1,462, 18 h) of over 100 µM and an MIC50 ([3]; clinical isolate 1,462, 24 h) of 49.8 µM (≈ 109 µg/mL). It also gave an MBC ([4]; clinical isolate 48,577, 18 h) of 50.0 µM (≈ 110 µg/mL), an MIC50 ([4]; clinical isolate 48,577, 24 h) of 12.9 µM (≈ 28.3 µg/mL) and an MBC ([5]; clinical isolate 1,461, 18 h) of over 100 µM. The MIC50 ([5]; clinical isolate 1,461, 24 h) was over 100 µM, the “H50, concentration of peptide leading to 50% hemolysis” value (human erythrocytes; red cells of human, 2 h) was over 100 µM and the Gm, geometric mean of MIC50 values [6] was 16.8 µM. For the same compound, the “Fold (GM peptide / GM tetrameric peptide)” value [6] was 1.7, the “Gm, geometric mean of MIC50 values” [7] was 16.1 and the “Fold (GM peptide / GM tetrameric peptide)” value [7] was 1.2. For the same compound, the “Bacterial viability (lowest value observed)” value (“Bacterial viability” below) ([8]; 25 μM) was 40.9%, the MBC ([8]; ATCC 29212, 18 h) was 100.0 µM (≈ 220 µg/mL) and the MIC50 ([8]; ATCC 29212, 24 h) was 13.1 µM (≈ 28.8 µg/mL). The “MBC relative to MBC of the tetrameric peptide (× MBCtet)” value (from here on “MBC relative to MBC”) ([8]; sensitive E. faecalis strain) was 4 × MBCtet, the MBC ([9]; ATCC 10145, 18 h) was 100.0 µM (≈ 220 µg/mL) and the MIC50 ([9]; ATCC 10145, 24 h) was 29.1 µM (≈ 63.9 µg/mL). The “MBC relative to MBC” value ([9]; sensitive P. aeruginosa strain) was 4 × MBCtet, the “Bacterial viability” value ([10]; 25.0 μM) was 65.3% and the MBC ([10]; ATCC 51575, 18 h) was over 200.0 µM. The MIC50 ([10]; ATCC 51575, 24 h) was over 200.0 µM, the MBC ([11]; ATCC 27853, 18 h) was 200.0 µM (≈ 439 µg/mL) and the MIC50 ([11]; ATCC 27853, 24 h) was 34.8 µM (≈ 76.4 µg/mL). For the same compound, the “MBC relative to MBC” value ([11]; resistant P. aeruginosa strain) was 4 × MBCtet.
For “(RRWQWR)4K2Ahx2C2 (disulfide) [LfcinB (20–25)4, branched tetrameric peptide (RRWQWR)4K2Ahx2C2, two dimers linked by a cysteine disulfide bridge]”, the “Fold (GM peptide / GM tetrameric peptide)” value [1] was 1.0, the “Gm, geometric mean of MIC50 values” ([1]; Gram-positive clinical isolates (E. faecium, S. aureus) with a printed MIC50) was 7.0 and the MIC50 ([3]; E. faecium isolate 1,462, broth microdilution, 24 h 37°C, OD620, 50% growth inhibition) was over 100 µM. For the same compound, the MBC ([3]; E. faecium isolate 1,462, plated on agar 18 h 37°C, 99.9% reduction) was 12.5 µM, the MIC50 ([4]; S. aureus isolate 48,577, broth microdilution, 24 h 37°C, OD620, 50% growth inhibition) was 6.3 µM and the MBC ([4]; S. aureus isolate 48,577, plated on agar 18 h 37°C, 99.9% reduction) was 100.0 µM. The MIC50 ([5]; E. faecium isolate 1,461, broth microdilution, 24 h 37°C, OD620, 50% growth inhibition) was over 100 µM, the MBC ([5]; E. faecium isolate 1,461, plated on agar 18 h 37°C, 99.9% reduction) was 12.5 µM and the “Hmax relative to that of the dimer” value (human erythrocytes) was 8 x. The “Fold (GM peptide / GM tetrameric peptide)” value [6] was 1.0, the Gm, geometric mean of MIC50 values ([6]; Gram-negative clinical isolates (K. pneumoniae, P. aeruginosa) with a printed MIC50) was 9.7 µM and the “Fold (GM peptide / GM tetrameric peptide)” value [7] was 1.0. The “Gm, geometric mean of MIC50 values” ([7]; Gram-negative ATCC strains 13883, 700603, 10145, 27853, in µM) was 13.1, the “Bacterial viability” value ([8]; 6.2 μM) was 48.9% and the MBC ([8]; E. faecalis ATCC 29212 sensitive, aliquots of MIC50 wells on Mueller Hinton agar, 18 h 37°C, 99.9% reduction) was 25.0 µM. It also gave an MIC50 ([8]; E. faecalis ATCC 29212 sensitive, broth microdilution, Mueller Hinton broth, 24 h 37°C, OD620, concentration inhibiting growth by 50%) of 3.1 µM, an MIC50 ([9]; P. aeruginosa ATCC 10145 sensitive, broth microdilution, 24 h 37°C, OD620, 50% growth inhibition) of 18.1 µM and an MBC ([9]; P. aeruginosa ATCC 10145 sensitive, plated on Mueller Hinton agar, 18 h 37°C, 99.9% reduction) of 50.0 µM. The “Bacterial viability” value ([10]; 12.5 μM) was 62.4%, the MIC50 ([10]; E. faecalis ATCC 51575 resistant, broth microdilution, 24 h 37°C, OD620, 50% growth inhibition) was over 200.0 µM and the MBC ([10]; E. faecalis ATCC 51575 resistant, plated on Mueller Hinton agar, 18 h 37°C, 99.9% reduction) was over 200.0 µM. For the same compound, the MIC50 ([11]; P. aeruginosa ATCC 27853 resistant, broth microdilution, 24 h 37°C, OD620, 50% growth inhibition) was 21.7 µM and the MBC ([11]; P. aeruginosa ATCC 27853 resistant, plated on Mueller Hinton agar, 18 h 37°C, 99.9% reduction) was 50.0 µM.
